The source of these data is article PMC10350920, “Development of a 2,4-Diaminothiazole Series for the Treatment of Human African Trypanosomiasis Highlights the Importance of Static–Cidal Screening of Analogues” (Journal of Medicinal Chemistry, 2023).

The test system of series [1] is BSF T. b. brucei “single marker” S427. As to the kind of experiment: Drug sensitivity assay with bloodstream-form T. brucei. Type of series: cell-based. As to conditions: for EC50: Trypanosoma brucei, mean values, number of replicates in parentheses. As to the method:
(§1) Drug sensitivity assays with BSF T. b. brucei “single marker” S427 and human MRC-5 fibroblasts were conducted as previously described.[43]

Series [2] can be described thus: Mammalian cell counter screen (MRC-5). Type of series: cell-based, human. As to conditions: human, MRC-5 fibroblasts; mean values; number of replicates in parentheses. As to the method: as §1
For orientation: Counterscreens check selectivity or assay interference.

Another series relates to human MRC-5 fibroblasts. The series is described as follows: Mammalian cell counter screen (MRC-5). Format: cell-based. As to conditions: for SI: selectivity index (EC50 MRC5/EC50 T. brucei). As to the method:
as §1

Series [3] can be described thus: Mouse liver microsomal intrinsic clearance. Format: in vitro ADME. As to the method:
Test compounds (0.5 μM) were incubated with female CD1 mouse liver microsomes (Xenotech LLC; 0.5 mg mL^–1 50 mM potassium phosphate buffer, pH 7.4), and the reaction started with the addition of excess NADPH (8 mg mL^–1 50 mM potassium phosphate buffer, pH 7.4). Immediately, at 0 min, and then at 3, 6, 9, 15, and 30 min, an aliquot (50 μL) of the incubation mixture was removed and mixed with acetonitrile (100 μL) to stop the reaction. The internal standard was added to all samples, the samples were centrifuged to sediment the precipitated protein, and the plates were then sealed prior to UPLC–MS/MS analysis using a Quattro Premier XE (Waters Corporation, USA). XLfit (IDBS, UK) was used to calculate the exponential decay and consequently the rate constant (k) from the ratio of the peak area of the test compound to the internal standard at each time point. The rate of intrinsic clearance (CLint) of each test compound was then calculated using the following calculation [drawing 3] where V (mL mg^–1 protein) is the incubation volume mg^–1 protein added and the microsomal protein yield is taken as 52.5 mg protein g^–1 liver. Verapamil (0.5 μM) was used as a positive control to confirm acceptable assay performance.
On the technique in general: Liver microsomes are vesicles of endoplasmic reticulum, rich in cytochrome P450 enzymes.

A short description of series [4]: Human microsomal intrinsic clearance. Format: in vitro ADME. As to conditions: second value of mouse/human cell.
The nature of series [5]: Equilibrium dialysis, free fraction in plasma. As to conditions: matrix not given; for fraction unbound at 5 h, 10 μg mL^–1: CD1, mouse, plasma, pH 7.4, read-out: Fu (free fraction). Format: in vitro ADME, mouse. As to the method: In brief, a 96-well equilibrium dialysis apparatus was used to determine the free fraction in plasma and the brain (HT Dialysis LLC, Gales Ferry, CT). Isotonic buffer was prepared using 8.69 g of Na2HPO4, 1.9 g of KH2PO4, and 4.11 g of NaCl dissolved in 1 L of Milli-Q water, and the pH was adjusted to 7.4. Artificial CSF was prepared using 3.652 g of NaCl, 93.2 mg of KCl, 119.96 mg of MgCl2, 92.61 mg of CaCl2, and 268 mg of Na2HPO4 heptahydrate dissolved in 0.5 L of water, and the pH was adjusted to 7.4. Membranes [12–14 (plasma) or 6–9 (brain) kDA cutoff] were conditioned in deionized water for 60 min, followed by conditioning in 80:20 deionized water/ethanol for 20 min, and then rinsed in isotonic buffer (plasma) or […] (brain) before use. Female CD1 mouse plasma was defrosted and centrifuged for 10 min at 3000 rpm (Allegra X12-R, Beckman Coulter, USA). The control mouse brain was homogenized in two volumes of artificial CSF in a Covaris S2 acoustic homogenizer. Plasma or brain homogenate was spiked with the test compound (10 μg mL^–1), and 150 μL aliquots (n = 3 replicate determinations) were loaded into the 96-well equilibrium dialysis plate. Dialysis versus 150 μL of isotonic buffer (plasma) or artificial CSF (brain) was carried out for 5 h in a temperature-controlled incubator at 37 °C (Barworld Scientific Ltd, UK) using an orbital microplate shaker at 125 rpm (Barworld Scientific Ltd, UK). At the end of the incubation period, aliquots of plasma/homogenized brain or buffer were transferred to a clean 96-well plate, and the composition in each well was balanced with control fluid, such that the volume of buffer to the matrix was the same. Sample extraction was performed by the addition of 400 μL of acetonitrile containing an appropriate internal standard. Samples were allowed to mix for 1 min and then centrifuged at 3000 rpm in 96-well blocks for 10 min (Allegra X12-R, Beckman Coulter, USA). All samples were analyzed by means of UPLC/MS/MS on a Quattro Premier XE or Micro TQs mass spectrometer (Waters Corporation, USA). The unbound fraction was determined as the ratio of the peak area in the buffer to that in the matrix.

Series [6] in a line: Kinetic aqueous solubility (laser nephelometry). Format: physicochemical. The settings on record: Milli-Q water with 2.5% DMSO. As to the method:
The kinetic aqueous solubility of the test compounds was measured using laser nephelometry. Compounds were subject to serial dilution from 10 to 0.5 mM in DMSO. An aliquot was then mixed with Milli-Q water to obtain an aqueous dilution plate with a final concentration range of 13–250 μM, with a final DMSO concentration of 2.5%. Triplicate aliquots were transferred to a flat-bottomed polystyrene plate which was immediately read on the NEPHELOstar (BMG Lab Technologies). The amount of laser scatter caused by insoluble particulates (relative nephelometry units, RNUs) was plotted against compound concentration using a segmental regression fit, with the point of inflection being quoted as the compound’s aqueous solubility (μM).

The nature of series [7]: Mouse brain penetration (brain:blood ratio). The settings on record: female, NMRI, mouse, brain and blood, 10 mg kg^–1; mice, bolus of test compound, total compound; read-out: brain/blood (B/B) ratio. Type of series: in vivo, female NMRI mice. As to the method:
Medicines for HAT are required to treat both acute and chronic infections, where parasites pass through the blood/brain barrier and enter the CNS. With this in mind, mice were dosed with an […] bolus of our test compounds, and compound concentrations in blood and brain were determined by UPLC–MS/MS. […] The brain fraction unbound was 0.0063 for 16 and 0.0313 for 38. Brain penetration of the series as a whole tracked with the generally accepted rules of CNS penetration, with a lower topological PSA (TPSA) and molecular weight compounds having an increased B/B ratio (Table S2 and Figure S1). However, the link between log P and the B/B ratio was slightly less convincing. […] This difference could be explained by 18 being a substrate for the P-glycoprotein efflux pump.
Each compound was dosed as an IV bolus at 10 mg kg^–1 dissolved in 15% solutol/Milli-Q (dose volume 10 mL kg^–1) to female NMRI mice (n = 3). At 30 min following the IV bolus of the test compound, mice (n = 3/time point) were placed under terminal anesthesia with isoflurane. A blood sample was taken by cardiac puncture and added to two volumes of distilled water, and the brain was removed. […] For each mouse at each time point, the concentration in the brain (ng g^–1) was divided by the concentration in blood (ng mL^–1) to give a brain: blood ratio.

Series [8] in a line: Rat microsomal intrinsic clearance. Format: in vitro ADME. As to conditions: second value of mouse/rat cell.

One may read the EC50 as the midpoint of the concentration-response curve. The solubility is the concentration that dissolves in the medium under given conditions.

A value given as a limit tells only on which side of the number the result lay.

As for `Nc1nc(Nc2ccccc2)sc1C(=O)c1ccccc1` [Compound 34, (4-Amino-2-(phenylamino)thiazol-5-yl)(phenyl)methanone], the EC50 in [1] was 160 nM. Moreover, the EC50 in series [2] was 11000 nM. In the series on human MRC-5 fibroblasts, the “selectivity over MRC-5 cell line” value is about 100 fold and the SI amounted to 69. In series [3], the “CLint (mouse)” value turned out to be 12 mL·min/g. The “CLint (human)” value in series [4] is under 0.5 mL·min/g.
On to `Nc1nc(NC2CCCC(O)C2)sc1C(=O)c1c(F)cccc1F` (centres unmarked) [Compound 16B], for which the EC50 in series [1] is 948 nM. For the same compound, in series [3], the “CLint (mouse)” value was determined as 1.8 mL·min/g. Besides, the fraction unbound at 5 h, 10 μg mL^–1 in series [5] came to 0.22.
For the compound `CC(OCC(=O)c1sc(Nc2ccn(C)n2)nc1N)C(F)(F)F` (centres unmarked) [Compound 55, 1-(4-Amino-2-((1-methyl-1H-pyrazol-3-yl)amino)thiazol-5-yl)-2-((1,1,1-trifluoropropan-2-yl)oxy)ethan-1-one], the EC50 in [1] was found to be 190 nM; in series [2], 9400 nM. Moreover, in the series with human MRC-5 fibroblasts, the SI turned out to be 50. For the same compound, the “CLint (mouse)” value in series [3] was found to be 10.8 mL·min/g. This compound registered a solubility in series [6] of over 100 µg/mL.
For the compound `Nc1nc(N[C@H]2CC[C@H](O)CC2)sc1C(=O)c1c(F)cccc1F` [Compound 16A], in series [1], the EC50 stood at 360 nM. In addition, the fraction unbound at 5 h, 10 μg mL^–1 in series [5] came out at 0.39.
Take `CC(C)C(=O)c1sc(NC2CCCCC2)nc1N` [Compound 18, 1-(4-Amino-2-(cyclohexylamino)thiazol-5-yl)-2-methylpropan-1-one]: the EC50 in [1] came to 2400 nM; in series [2] it was 10000 nM. In addition, the SI in the series with human MRC-5 fibroblasts is 4. In series [3], the “CLint (mouse)” value amounted to 0.5 mL·min/g. The Kp at 30 min in series [7] turned out to be 0.06.
As for `CC(OCC(=O)c1sc(Nc2ccc(Cl)cc2)nc1N)C(F)(F)F` (centres unmarked) [Compound 51, 1-(4-Amino-2-((4-chlorophenyl)amino)thiazol-5-yl)-2-((1,1,1-trifluoropropan-2-yl)oxy)ethanone], the EC50 in [1] is 8 nM; in series [2] it was over 50000 nM. Besides, in the series with human MRC-5 fibroblasts, the SI was 6250. Further, the “CLint (mouse)” value in series [3] came to 5.3 mL·min/g. Also, in series [8], the “CLint (rat)” value is 1.7 mL·min/g. In addition, the Kp at 30 min in series [7] was found to be 0.9.
For `CC(OCC(=O)c1sc(Nc2ccc(C(F)(F)F)nc2)nc1N)C(F)(F)F` (centres unmarked) [Compound 56, 1-(4-Amino-2-((6-(trifluoromethyl)pyridine-3-yl)amino)thiazol-5-yl)-2-((1,1,1-trifluoropropan-2-yl)oxy)ethanone], the EC50 in series [1] was 520 nM; in series [2], over 50000 nM. Moreover, the SI in the series with human MRC-5 fibroblasts was determined as 96. In series [6], this compound displayed a solubility of over 100 µg/mL.
For `CC(C)CC(=O)c1sc(Nc2ccc(F)c(F)c2)nc1N` [Compound 37, 1-(4-Amino-2-((3,4-difluorophenyl)amino)thiazol-5-yl)-3-methylbutan-1-one], the EC50 is 200 nM in series [1] and over 50000 nM in series [2]. The compound further gave an SI in the series on human MRC-5 fibroblasts of over 250. For the same compound, the “CLint (mouse)” value in series [3] was 5.9 mL·min/g. Besides, the “CLint (human)” value in series [4] was 3.2 mL·min/g. Further, the Kp at 30 min in series [7] was 4.7.
`Nc1nc(NC2CCCCC2)sc1C(=O)c1ccc(OC(F)F)cc1` [Compound 26, (4-Amino-2-(cyclohexylamino)thiazol-5-yl)(4-(difluoromethoxy)phenyl)methanone]: the values for the EC50 in series [1] and in series [2] were 60 nM and 22000 nM, respectively. Further, the “CLint (mouse)” value in series [3] was 2.9 mL·min/g. Also, the “CLint (human)” value in series [4] was 0.8 mL·min/g. The “Fu (free fraction)” value in series [5] was “low”.
On to `Nc1nc(Nc2ccc(F)c(F)c2)sc1C(=O)CN1CCC(F)(F)CC1` [Compound 68, 1-(4-Amino-2-((3,4-difluorophenyl)amino)thiazol-5-yl)-2-(4,4-difluoropiperidin-1-yl)ethanone], for which the EC50 in series [1] is 20 nM; in series [2] it was 47000 nM. This compound showed an SI in the series on human MRC-5 fibroblasts of 2350. The “CLint (mouse)” value in series [3] is 9.3 mL·min/g. In addition, in series [8], the “CLint (rat)” value came out at 11 mL·min/g.
Consider `Nc1nc(Nc2ccc(F)c(F)c2)sc1C(=O)CCN1CCOCC1` [Compound 64, 1-(4-Amino-2-((3,4-difluorophenyl)amino)thiazol-5-yl)-3-morpholinopropan-1-one], for which, in series [1] (SAR comparison), the “reduction (loss, drop off) in potency against T. brucei relative to parent analogue” value is over 110 fold. In addition, the figures for the EC50 in series [1] and in [2] were 5000 nM and 29000 nM, respectively. This compound had an SI in the series with human MRC-5 fibroblasts of 6. For the same compound, the “CLint (mouse)” value in [3] worked out at 1.2 mL·min/g. Further, the “CLint (rat)” value in series [8] stood at 8.3 mL·min/g.
